Measurements taken from US20200017496A1 (priority 2017, published 2020).
Like-named read-outs stand apart in the source and are kept apart here.

Test system: Klebsiella pneumoniae (KPN) isolates
Test: MIC of compounds alone and combined with antibacterials, broth microdilution (CLSI)
Type: cell-based
Details: Klebsiella pneumoniae, read-out: MIC
Experimental: Method 2: MIC of Compounds Alone and Combined with Antibacterials Against Bacterial Isolates.
Compounds of the present invention were assessed against genotyped bacterial strains (Table 3, 4) alone or in combination with an antibacterial (Table 2). […] Log phase bacterial suspensions were adjusted to a final density of 5·10^5 CFU/mL in cation-adjusted Mueller-Hinton broth (ca-MHB; Becton-Dickinson and Company) and added to each well (98 μL). Microplates were incubated for 16-20 h at 35° C. in ambient air. The MIC of the compounds was defined as the lowest concentration of said compounds that prevented bacterial growth as read by visual inspection. The MIC of ATB at each compound concentration was defined as the lowest concentration of ATB that prevented bacterial growth as read by visual inspection.

C=CC1=C(C(=O)O)N2C(=O)[C@@H](NC(=O)/C(=N\OCC(=O)O)c3csc(N)n3)[C@H]2SC1 [FIX, Cefixime]
MIC (KPN UFR66, alone): 512 µg/mL
MIC (KPN UFR68, alone): > 128 µg/mL
MIC (strain KPN 6299 (TEM-1, SHV-11, OXA-163), ATB alone): 8 µg/mL
MIC (strain KPN 6299 (TEM-1, SHV-11, OXA-163), CLA @ 4 μg/ml+ ATB): 8 µg/mL
MIC (strain KPN 110376 (TEM-1, SHV-1, CTX-M-15, OXA-1, OXA-48), ATB alone): > 128 µg/mL
MIC (strain KPN 110376 (TEM-1, SHV-1, CTX-M-15, OXA-1, OXA-48), CLA @ 4 μg/ml+ ATB): 128 µg/mL
MIC (strain KPN 131119 (TEM-1, SHV-11, CTX-M-15, OXA-1, OXA-48), ATB alone): > 128 µg/mL
MIC (strain KPN 131119 (TEM-1, SHV-11, CTX-M-15, OXA-1, OXA-48), CLA @ 4 μg/ml+ ATB): > 128 µg/mL
MIC (strain KPN 140513 (TEM-1, SHV-11, CTX-M-15, KPC-3), ATB alone): > 128 µg/mL
MIC (strain KPN 140513 (TEM-1, SHV-11, CTX-M-15, KPC-3), CLA @ 4 μg/ml+ ATB): > 128 µg/mL
MIC (strain KPN 160143 (TEM-1, SHV-1, CTX-M-15, KPC-2, OXA-1), ATB alone): > 128 µg/mL
MIC (strain KPN 160143 (TEM-1, SHV-1, CTX-M-15, KPC-2, OXA-1), CLA @ 4 μg/ml+ ATB): 2 µg/mL
MIC (strain KPN 190128 (TEM-1, SHV-32, CTX-M-15, OXA-1), ATB alone): > 128 µg/mL
MIC (strain KPN 190128 (TEM-1, SHV-32, CTX-M-15, OXA-1), CLA @ 4 μg/ml+ ATB): 0.5 µg/mL
MIC (strain KPN 190270 (TEM-1, SHV-76, CTX-M-15, OXA-1), ATB alone): > 128 µg/mL
MIC (strain KPN 190270 (TEM-1, SHV-76, CTX-M-15, OXA-1), CLA @ 4 μg/ml+ ATB): 1 µg/mL
MIC (strain KPN 190425 (TEM-1, SHV-1, CTX-M-15, OXA-1), ATB alone): > 128 µg/mL
MIC (strain KPN 190425 (TEM-1, SHV-1, CTX-M-15, OXA-1), CLA @ 4 μg/ml+ ATB): ≤ 0.25 µg/mL
MIC (strain KPN 190551 (TEM-1, SHV-1, CTX-M-15, OXA-1), ATB alone): > 128 µg/mL
MIC (strain KPN 190551 (TEM-1, SHV-1, CTX-M-15, OXA-1), CLA @ 4 μg/ml+ ATB): ≤ 0.25 µg/mL
MIC (strain KPN 200047 (TEM-1, SHV-32, CTX-M-15, OXA-1), ATB alone): > 128 µg/mL
MIC (strain KPN 200047 (TEM-1, SHV-32, CTX-M-15, OXA-1), CLA @ 4 μg/ml+ ATB): ≤ 0.25 µg/mL
MIC (strain KPN 200327 (TEM-1, SHV-1, CTX-M-15, OXA-1), ATB alone): 64 µg/mL
MIC (strain KPN 200327 (TEM-1, SHV-1, CTX-M-15, OXA-1), CLA @ 4 μg/ml+ ATB): ≤ 0.25 µg/mL
MIC (strain KPN 260251 (TEM-1, SHV-11, SHV-12, CTX-M-15, KPC-2), ATB alone): > 128 µg/mL
MIC (strain KPN 260251 (TEM-1, SHV-11, SHV-12, CTX-M-15, KPC-2), CLA @ 4 μg/ml+ ATB): 32 µg/mL
MIC (strain KPN 260252 (TEM-1, SHV-11, KPC-3), ATB alone): > 128 µg/mL
MIC (strain KPN 260252 (TEM-1, SHV-11, KPC-3), CLA @ 4 μg/ml+ ATB): 128 µg/mL
MIC (strain KPN 260376 (SHV-1, SHV-49, OXA-1), ATB alone): > 128 µg/mL
MIC (strain KPN 260376 (SHV-1, SHV-49, OXA-1), CLA @ 4 μg/ml+ ATB): ≤ 0.25 µg/mL
MIC (strain KPN 270077 (TEM-1, SHV-1, CTX-M-15), ATB alone): > 128 µg/mL
MIC (strain KPN 270077 (TEM-1, SHV-1, CTX-M-15), CLA @ 4 μg/ml+ ATB): 0.5 µg/mL
MIC (strain KPN 700603 (SHV-18, OXA-2), ATB alone): 16 µg/mL
MIC (strain KPN 700603 (SHV-18, OXA-2), CLA @ 4 μg/ml+ ATB): 0.5 µg/mL
MIC (strain KPN ARA (TEM-1, SHV-11, CTX-M-15, OXA-1, OXA-48), ATB alone): > 128 µg/mL
MIC (strain KPN ARA (TEM-1, SHV-11, CTX-M-15, OXA-1, OXA-48), CLA @ 4 μg/ml+ ATB): 128 µg/mL
MIC (strain KPN LIB (SHV-11, OXA-48), ATB alone): ≤ 0.25 µg/mL
MIC (strain KPN LIB (SHV-11, OXA-48), CLA @ 4 μg/ml+ ATB): ≤ 0.25 µg/mL
MIC (strain KPN UFR22_O (TEM-1, SHV-1, OXA-48), ATB alone): ≤ 0.25 µg/mL
MIC (strain KPN UFR22_O (TEM-1, SHV-1, OXA-48), CLA @ 4 μg/ml+ ATB): ≤ 0.25 µg/mL
MIC (strain KPN UFR23 (TEM-1, SHV-1, OXA-48), ATB alone): ≤ 0.25 µg/mL
MIC (strain KPN UFR23 (TEM-1, SHV-1, OXA-48), CLA @ 4 μg/ml+ ATB): ≤ 0.25 µg/mL
MIC (strain KPN UFR24 (TEM-1, SHV-2, SHV-11, OXA-1, OXA-48, OXA-47), ATB alone): > 128 µg/mL
MIC (strain KPN UFR24 (TEM-1, SHV-2, SHV-11, OXA-1, OXA-48, OXA-47), CLA @ 4 μg/ml+ ATB): 64 µg/mL
MIC (strain KPN UFR25 (TEM-1, SHV-11, CTX-M-15, OXA-162), ATB alone): > 128 µg/mL
MIC (strain KPN UFR25 (TEM-1, SHV-11, CTX-M-15, OXA-162), CLA @ 4 μg/ml+ ATB): 64 µg/mL
MIC (strain KPN UFR27 (TEM-1, SHV-28, CTX-M-15, OXA-204), ATB alone): > 128 µg/mL
MIC (strain KPN UFR27 (TEM-1, SHV-28, CTX-M-15, OXA-204), CLA @ 4 μg/ml+ ATB): > 128 µg/mL
MIC (strain KPN UFR28 (TEM-1, SHV-1, CTX-M-15, OXA-1, OXA-232), ATB alone): 256 µg/mL
MIC (strain KPN UFR28 (TEM-1, SHV-1, CTX-M-15, OXA-1, OXA-232), CLA @ 4 μg/ml+ ATB): 64 µg/mL
MIC (strain KPN UFR65 (TEM-1, SHV-11, KPC-2), ATB alone): > 128 µg/mL
MIC (strain KPN UFR65 (TEM-1, SHV-11, KPC-2), CLA @ 4 μg/ml+ ATB): 128 µg/mL
MIC (strain KPN UFR66 (TEM-1, SHV-11, CTX-M-15, KPC-2), ATB alone): 512 µg/mL
MIC (strain KPN UFR66 (TEM-1, SHV-11, CTX-M-15, KPC-2), CLA @ 4 μg/ml+ ATB): 64 µg/mL
MIC (strain KPN UFR67 (TEM-1, SHV-11, KPC-3), ATB alone): > 128 µg/mL
MIC (strain KPN UFR67 (TEM-1, SHV-11, KPC-3), CLA @ 4 μg/ml+ ATB): 128 µg/mL
MIC (strain KPN UFR68 (TEM-1, SHV-11, CTX-M-15, KPC-3), ATB alone): > 128 µg/mL
MIC (strain KPN UFR68 (TEM-1, SHV-11, CTX-M-15, KPC-3), CLA @ 4 μg/ml+ ATB): 64 µg/mL
MIC (strain KPN UFR76 (TEM-155, SHV-11, ACT-1, OXA-2), ATB alone): > 128 µg/mL
MIC (strain KPN UFR76 (TEM-155, SHV-11, ACT-1, OXA-2), CLA @ 4 μg/ml+ ATB): > 128 µg/mL
MIC (strain KPN UFR77 (CMY-2), ATB alone): 128 µg/mL
MIC (strain KPN UFR77 (CMY-2), CLA @ 4 μg/ml+ ATB): 128 µg/mL
MIC (strain KPN UFR78 (TEM-1, SHV-1, CTX-M-15, CMY-2, OXA-1, OXA-48), ATB alone): > 128 µg/mL
MIC (strain KPN UFR78 (TEM-1, SHV-1, CTX-M-15, CMY-2, OXA-1, OXA-48), CLA @ 4 μg/ml+ ATB): > 128 µg/mL
MIC (strain KPN UFR79 (DHA-1, OXA-1), ATB alone): > 128 µg/mL
MIC (strain KPN UFR79 (DHA-1, OXA-1), CLA @ 4 μg/ml+ ATB): > 128 µg/mL
MIC (strain KPN UFR80 (SHV-11, DHA-1, OXA-1), ATB alone): ≤ 0.25 µg/mL
MIC (strain KPN UFR80 (SHV-11, DHA-1, OXA-1), CLA @ 4 μg/ml+ ATB): 0.5 µg/mL
MIC (strain KPN UFR81 (TEM-1, SHV-1, DHA-1, OXA-48), ATB alone): > 128 µg/mL
MIC (strain KPN UFR81 (TEM-1, SHV-1, DHA-1, OXA-48), CLA @ 4 μg/ml+ ATB): > 128 µg/mL
MIC (strain KPN UFR215 (SHV-27, CTX-M-15), ATB alone): > 128 µg/mL
MIC (strain KPN UFR215 (SHV-27, CTX-M-15), CLA @ 4 μg/ml+ ATB): 1 µg/mL
MIC (strain KPN UFR216 (SHV-28, CTX-M-15), ATB alone): > 128 µg/mL
MIC (strain KPN UFR216 (SHV-28, CTX-M-15), CLA @ 4 μg/ml+ ATB): ≤ 0.25 µg/mL
MIC (strain KPN UFR217 (TEM-1, SHV-1, CTX-M-15), ATB alone): > 128 µg/mL
MIC (strain KPN UFR217 (TEM-1, SHV-1, CTX-M-15), CLA @ 4 μg/ml+ ATB): ≤ 0.25 µg/mL
MIC (strain KPN UFR219 (SHV-12, CTX-M-15), ATB alone): > 128 µg/mL
MIC (strain KPN UFR219 (SHV-12, CTX-M-15), CLA @ 4 μg/ml+ ATB): 0.5 µg/mL
MIC (strain KPN UFR220 (TEM-1, SHV-12, DHA-1), ATB alone): > 128 µg/mL
MIC (strain KPN UFR220 (TEM-1, SHV-12, DHA-1), CLA @ 4 μg/ml+ ATB): > 128 µg/mL
MIC (strain KPN UFR221 (TEM-1, SHV-11, CTX-M-14, DHA-1), ATB alone): 64 µg/mL
MIC (strain KPN UFR221 (TEM-1, SHV-11, CTX-M-14, DHA-1), CLA @ 4 μg/ml+ ATB): 128 µg/mL
MIC (strain KPN UFR222 (DHA-2), ATB alone): > 128 µg/mL
MIC (strain KPN UFR222 (DHA-2), CLA @ 4 μg/ml+ ATB): > 128 µg/mL
MIC (strain KPN UFR227O (TEM-x, SHV-x, CTX-M-x), ATB alone): > 128 µg/mL
MIC (strain KPN UFR227O (TEM-x, SHV-x, CTX-M-x), CLA @ 4 μg/ml+ ATB): > 128 µg/mL
